Results on 1 compound are retold here after PMC5653977 (EMBO Molecular Medicine, 2017).

Data set [1] deals with Nrg1-tg and wt mice. Kind of data set: Y-maze test. The data set is classed as in vivo, mouse. Conditions: 50 mg/kg s.c. daily. As to the method:
(§1) For behavioral testing, age‐matched male mice (8–16 weeks) on C57Bl/6 background that constitutively overexpress the 2xHA‐tagged Nrg1 type III β1a isoform (Nrg1‐tg) under the control of the mouse Thy1.2 promoter (Velanac et al, 2012) and their wild‐type (wt) littermates as controls were used. Animals were group‐housed in the same ventilated sound‐attenuated rooms under a 12‐h light/12‐h dark schedule (lights on at 8:00 am) at an ambient temperature of 21°C with food and water available ad libitum. One week prior to experiments, mice were separated into single cages and habituated to the experimental rooms. To minimize the influence of the circadian rhythm on drug actions, the treatment groups were analyzed at balanced time points during the light phase. […] All animal experiments were conducted in accordance with NIH principles of laboratory animal care and were approved by the Government of Lower Saxony, Germany, in accordance with the German Animal Protection Law.
(§2) Treatment was continued throughout the behavioral analysis period. To avoid injection‐induced stress prior to behavioral testing, mice were injected in the afternoon, after the entire cohort has completed the behavioral paradigm.

Details of data set [2]: method as in Zhou et al, 2011. Particulars: ref Zhou et al, 2011; cited from earlier work.
In a further data set the target is T1, Erbb4 (Mus musculus, UniProt Q61527).
T1 construct: from tissue; host or cells: prefrontal cortex of Nrg1-tg and wt mice (C57Bl/6)
T1 sequence (Q61527 26-1308): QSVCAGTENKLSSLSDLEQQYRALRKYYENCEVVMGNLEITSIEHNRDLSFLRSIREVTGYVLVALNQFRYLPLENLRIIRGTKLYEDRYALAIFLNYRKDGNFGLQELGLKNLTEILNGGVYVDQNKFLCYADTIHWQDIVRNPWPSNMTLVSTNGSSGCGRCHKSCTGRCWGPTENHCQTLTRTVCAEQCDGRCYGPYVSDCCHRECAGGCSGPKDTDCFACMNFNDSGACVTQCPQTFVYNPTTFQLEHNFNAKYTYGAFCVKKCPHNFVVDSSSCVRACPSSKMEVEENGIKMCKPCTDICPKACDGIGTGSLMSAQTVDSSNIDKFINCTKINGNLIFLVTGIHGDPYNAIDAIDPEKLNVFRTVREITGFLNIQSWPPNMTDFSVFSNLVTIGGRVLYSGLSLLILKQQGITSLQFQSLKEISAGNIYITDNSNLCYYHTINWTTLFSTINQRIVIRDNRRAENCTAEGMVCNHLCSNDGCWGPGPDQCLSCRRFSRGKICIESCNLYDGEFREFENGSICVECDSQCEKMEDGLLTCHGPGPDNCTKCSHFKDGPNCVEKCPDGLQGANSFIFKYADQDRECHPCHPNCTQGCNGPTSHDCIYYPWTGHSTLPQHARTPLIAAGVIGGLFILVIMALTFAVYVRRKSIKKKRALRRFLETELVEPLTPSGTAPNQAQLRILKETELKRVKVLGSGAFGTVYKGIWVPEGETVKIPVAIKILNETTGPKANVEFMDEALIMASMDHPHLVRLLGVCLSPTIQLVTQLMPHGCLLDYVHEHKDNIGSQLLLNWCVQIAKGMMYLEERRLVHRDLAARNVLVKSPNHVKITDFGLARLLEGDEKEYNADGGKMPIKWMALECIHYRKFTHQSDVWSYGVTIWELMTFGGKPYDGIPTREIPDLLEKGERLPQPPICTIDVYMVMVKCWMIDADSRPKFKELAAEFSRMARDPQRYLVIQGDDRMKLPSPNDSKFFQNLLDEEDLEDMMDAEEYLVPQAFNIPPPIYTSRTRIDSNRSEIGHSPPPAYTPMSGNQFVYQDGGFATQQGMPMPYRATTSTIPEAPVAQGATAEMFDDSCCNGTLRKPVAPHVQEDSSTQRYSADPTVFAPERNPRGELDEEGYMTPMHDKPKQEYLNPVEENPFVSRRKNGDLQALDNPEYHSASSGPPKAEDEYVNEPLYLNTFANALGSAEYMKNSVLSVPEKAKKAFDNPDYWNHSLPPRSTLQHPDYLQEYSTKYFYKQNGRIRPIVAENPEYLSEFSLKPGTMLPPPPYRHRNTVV
Put plainly: Western blot of phospho-Erbb4 in prefrontal cortex of spironolactone-treated mice. Particulars: Nrg1-tg mice, 50 mg/kg s.c. daily for 21 days, prefrontal cortex lysates. The data set is classed as in vivo. As to the method:
For the generation of lysates, the isolated tissue was immediately placed into cooled (4°C) sucrose buffer (320 mM sucrose, 10 mM Tris–HCl, 1 mM NaHCO3, 1 mM MgCl2, supplemented with 10 mM NaF, 1 mM […], 1 mM ZnCl2, 4.5 mM Na4P20_7 as phosphatase inhibitors, and the complete protease inhibitor cocktail (Roche)), homogenized using an ultra‐turrax (IKA GmbH, Staufen, Germany), sonicated (3 pulses for 10 s), and denatured for 10 min at 70°C in LDS sample buffer.
Each blot was replicated two times.
Treatment was continued throughout the behavioral analysis period.

Data set [3] deals with pyramidal neurons of the prefrontal cortex. Kind of data set: Evoked inhibitory postsynaptic currents (eIPSCs) in acute prefrontal cortex slices. Particulars: 5 μM in the presence of canrenone (10 μM). The data set is classed as cell-based, mouse. Here is the method: 300‐μm‐thick transverse slices comprising the medial prefrontal cortex (mPFC) area were prepared from 7‐ to 8‐week‐old C57Bl/6 mice as described previously (Teng et al, 2013; Agarwal et al, 2014). All recordings were performed in cortical layer V projection neurons. The bath solution consisted of oxygenated artificial cerebrospinal fluid (ACSF) containing NaCl 126 mM, KCl 3 mM, NaH2PO4 1.25 mM, MgSO4 1 mM, NaHCO3 26 mM, CaCl2 2 mM, glucose 10 mM, and the pH 7.2 adjusted with NaOH. Spontaneous GABAergic inhibitory postsynaptic currents (sIPSC) and evoked GABAergic inhibitory postsynaptic currents (eIPSC) were recorded at a holding potential of −70 mV in the presence of 6‐cyano‐7‐nitroquinoxaline‐2,3‐dione (CNQX, 10 μM) and DL‐2‐amino‐5‐phosphonovaleric acid (D‐APV, 50 μM). Glass pipettes were filled with the solution containing: KCl 140 mM, MgCl2 2 mM, CaCl2 1 mM, Na2GTP 0.5 mM, Na2ATP 4 mM, EGTA 10 mM, HEPES 10 mM. Patches with a series resistance of > 25 MΩ, a membrane resistance of < 0.8 GΩ, or leak currents of > 150 pA were excluded. Biphasic rectangular electric pulses (10 ms, 100–300 μA) were applied to layer I of the prelimbic area of mPFC through another glass pipette filled with ACSF. Synaptic currents were acquired at 20 kHz and filtered at 6 kHz, with a Digidata 1440 ADC‐converter coupled to a Multiclamp 700B amplifier (Molecular Devices, USA). […]

The test system of data set [4] is Nrg1-tg and wt mice. Put plainly: Hot plate test. The data set is classed as in vivo, mouse. Particulars: 50 mg/kg s.c. daily. As to the method:
as §1, §2
On the technique in general: In hot-plate and tail-flick tests a longer latency is read as antinociception.

Data set [5] has as its target EGFR-NTEV-tevS-GV + ERBB2-CTEV (Homo sapiens, UniProt P00533+P04626). Put plainly: ERBB dimerization split TEV assay EGFR/ERBB2. The data set is classed as cell-based. Particulars: 10 ng/ml EGFld. The source says: (§3) Gateway recombination cloning (Life Technologies) was applied for generating plasmids. Each ORF cloned was PCR‐amplified using the Pwo proofreading DNA polymerase (Roche) and BP‐recombined into the pDONR/Zeo plasmid (Life Technologies) to yield an entry vector, which was control‐digested using BsrGI to release the insert, and sequence‐verified. The following human ORFs were cloned using cDNA image clones ordered from Source BioScience: ERBB4 transcript variant JM‐a/CYT‐1 (Accession: BC112199), PIK3R1 (BC094795), GRB2 transcript variant 1 (BC000631), SHC1 transcript variant 2 (BC014158), STAT5A (BC027036), and SRC transcription variant 1 (BC051270). For EGFR, ERBB2, and ERBB3, entry vectors were obtained from the human CCSB kinase collection available from Addgene (Johannessen et al, 2010). Entry vectors were LR‐recombined into split TEV destination vectors [either pcDNA_attR1‐ORF‐attR2‐NTEV‐tevS‐GV‐2xHA_DEST or pTag4C_attR1‐ORF‐attR2‐CTEV‐2xHA_DEST, plasmids were described in detail before (Wehr et al, 2006)] to yield expression vectors, which were control‐digested using BsrGI. The plasmids for Nrg1 type I β1a and rat Nrg1 type III β1a have been described before (Wehr et al, 2006).

For data set [6], the system named is Nrg1-tg and wt mice. Put plainly: Light-dark preference test. The data set is classed as in vivo, mouse. Conditions: 50 mg/kg s.c. daily. As to the method:
as §1, §2

The target of data set [7] is ERBB2-NTEV-tevS-GV + ERBB2-CTEV (Homo sapiens, UniProt P04626). Kind of data set: ERBB dimerization split TEV assay ERBB2/ERBB2. The data set is classed as cell-based. Particulars: 10 ng/ml EGFld.
Chain of ERBB2-NTEV-tevS-GV + ERBB2-CTEV (P04626 23-1255): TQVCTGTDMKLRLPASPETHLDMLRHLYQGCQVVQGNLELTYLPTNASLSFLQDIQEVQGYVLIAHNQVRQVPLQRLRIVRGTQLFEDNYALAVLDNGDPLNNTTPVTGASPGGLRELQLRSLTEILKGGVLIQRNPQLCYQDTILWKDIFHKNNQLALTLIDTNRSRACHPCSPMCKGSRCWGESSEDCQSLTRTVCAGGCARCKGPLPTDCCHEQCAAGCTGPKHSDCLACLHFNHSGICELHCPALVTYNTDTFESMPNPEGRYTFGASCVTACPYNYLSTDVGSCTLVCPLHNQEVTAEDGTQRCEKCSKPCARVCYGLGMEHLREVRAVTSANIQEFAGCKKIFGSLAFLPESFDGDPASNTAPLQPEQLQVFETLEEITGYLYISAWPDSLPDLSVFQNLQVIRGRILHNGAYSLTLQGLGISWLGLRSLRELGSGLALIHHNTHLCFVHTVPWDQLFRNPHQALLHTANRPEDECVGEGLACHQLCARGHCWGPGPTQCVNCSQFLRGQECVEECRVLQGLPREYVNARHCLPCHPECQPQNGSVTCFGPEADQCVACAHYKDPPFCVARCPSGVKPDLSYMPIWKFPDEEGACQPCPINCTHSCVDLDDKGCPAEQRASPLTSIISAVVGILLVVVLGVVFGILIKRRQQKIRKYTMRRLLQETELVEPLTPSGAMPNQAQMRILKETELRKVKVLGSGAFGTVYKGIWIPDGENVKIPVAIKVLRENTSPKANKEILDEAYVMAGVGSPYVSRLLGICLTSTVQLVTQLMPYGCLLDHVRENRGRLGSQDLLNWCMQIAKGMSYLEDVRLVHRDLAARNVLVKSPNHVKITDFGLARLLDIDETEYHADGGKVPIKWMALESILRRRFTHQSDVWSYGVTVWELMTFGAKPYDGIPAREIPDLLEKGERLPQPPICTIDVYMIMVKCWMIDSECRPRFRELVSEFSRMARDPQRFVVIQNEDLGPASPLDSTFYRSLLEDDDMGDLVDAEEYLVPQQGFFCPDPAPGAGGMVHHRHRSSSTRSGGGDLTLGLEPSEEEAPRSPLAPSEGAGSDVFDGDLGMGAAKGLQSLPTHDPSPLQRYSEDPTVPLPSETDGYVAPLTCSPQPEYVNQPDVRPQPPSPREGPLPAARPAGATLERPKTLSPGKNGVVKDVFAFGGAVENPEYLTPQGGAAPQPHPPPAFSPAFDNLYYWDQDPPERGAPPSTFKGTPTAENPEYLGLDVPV
Chain of ERBB2-NTEV-tevS-GV + ERBB2-CTEV (P04626 23-1255): as above
Description: as §3

Details of data set [8]: method as in Zhou et al, 2011; Rimmele et al, 2013. Particulars: acute administration; ref Zhou et al, 2011; Rimmele et al, 2013; cited from earlier work.

The structures appear in SMILES notation.

As a reminder, the IC50 is the concentration that gives 50% inhibition. On to `CC(=O)S[C@@H]1CC2=CC(=O)CC[C@]2(C)[C@H]2CC[C@@]3(C)[C@@H](CC[C@@]34CCC(=O)O4)[C@H]12` [Spironolactone], for which the “arm choices in the Y-maze (activity)” value with Nrg1-tg and wt mice [1] was “There was no effect of treatment”. For the same compound, the “working memory (alterations in the Y-maze)” value in the data set on Nrg1-tg and wt mice [1] (Nrg1-tg mice) is “rescued these deficits”. In data set [2], the “recent fear memory formation in mice” value is reported as “impaired recent fear memory formation”. Moreover, the “phospho-Erbb4 levels (p-ERBB4-Y1284 antibody)” value on Erbb4 is “robust reduction”. In addition, the eIPSC amplitude result in data set [3] is given as “significantly increased”. For the same compound, the “pain sensitivity (latency to the first reaction, hot plate 52°C)” value with Nrg1-tg and wt mice [4] is listed as “significantly decreased levels of pain sensitivity”. The IC50 amounted to 4.66 µM in [5] and 13.1 µM in data set [7]. In the data set with Nrg1-tg and wt mice [6], the “time in the light compartment” value is listed as “spent more time in the light compartment”. In addition, the “memory retrieval in healthy human volunteers” value in data set [8] is “reduced memory retrieval”.
